Assay results reported in PubChem BioAssay AID330 (DTP/NCI, 2004).
Several values for one entry are separate records, joined by “and”; a condition that tells them apart may be missing. Identical values can stand only once. Inconclusive results and toxic doses are left out. Rule for the calls: active = survival T/C of 150% or more; inactive = T/C below 125% in these data.

Test system: P388 leukemia ip, CD2F1 mice, survival T/C
Assay: NCI In Vivo Anticancer Drug Screen. Data for tumor model P388 Leukemia (intraperitoneal) in CD2F1 (CDF1) mice
Settings: endpoint: median survival time, higher = longer survival
Outline: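 Mice carrying the transplanted tumor received test compound or vehicle. Survival was recorded in each group, and the value is the treated-group measurement divided by that of the vehicle-treated control group.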

[1] = dose: 60.0 mg/kg/injection, schedule: Q01DX005 (ip), vehicle: Klucel (hydroxypropylcellulose) (HPC)

Measured: T/C

C=CC12CN(C)C3C4COC(CC41)C1(C(=O)Nc4ccccc41)C32 (stereo unspecified)
inactive: dose: 1.25 mg/kg/injection, schedule: Q01DX009 (ip), vehicle: saline 103 % of control | dose: 2.5 mg/kg/injection, schedule: Q01DX009 (ip), vehicle: saline 88 % of control | dose: 5.0 mg/kg/injection, schedule: Q01DX009 (ip), vehicle: saline 95 % of control | dose: 7.5 mg/kg/injection, schedule: Q01DX005 (ip), vehicle: Klucel (hydroxypropylcellulose) (HPC) 98 % of control | dose: 10.0 mg/kg/injection, schedule: Q01DX009 (ip), vehicle: saline 106 % of control | dose: 15.0 mg/kg/injection, schedule: Q01DX005 (ip), vehicle: Klucel (hydroxypropylcellulose) (HPC) 95 % of control | dose: 30.0 mg/kg/injection, schedule: Q01DX005 (ip), vehicle: Klucel (hydroxypropylcellulose) (HPC) 98 % of control | [1] 102 % of control

O=C(O)C[N-]c1ccccc1.O=C(O)C[N-]c1ccccc1.[Ni+2]
inactive: dose: 6.25 mg/kg/injection, schedule: Q01DX009 (ip), vehicle: saline with Tween-80 86 % of control | dose: 12.5 mg/kg/injection, schedule: Q01DX009 (ip), vehicle: saline with Tween-80 91 % of control

CC(=O)Oc1c(Cl)c(Cl)c(C#N)c(Cl)c1C#N
inactive: dose: 25.0 mg/kg/injection, schedule: Q01DX009 (ip), vehicle: saline with Tween-80 100 % of control and 105 % of control | dose: 50.0 mg/kg/injection, schedule: Q01DX009 (ip), vehicle: saline with Tween-80 105 % of control

CC12CCC(CC1=O)C2(C)CC#N (stereo unspecified)
inactive: dose: 7.5 mg/kg/injection, schedule: Q01DX005 (ip), vehicle: saline 101 % of control | dose: 15.0 mg/kg/injection, schedule: Q01DX005 (ip), vehicle: saline 100 % of control

COC(=O)C1(C(=O)OC)OC(c2ccc(OC)cc2)[C@H]2C(=O)N(C)C(=O)[C@H]21 (stereo partly specified)
inactive: [1] 92 % of control | dose: 120.0 mg/kg/injection, schedule: Q01DX005 (ip), vehicle: Klucel (hydroxypropylcellulose) (HPC) 92 % of control | dose: 240.0 mg/kg/injection, schedule: Q01DX005 (ip), vehicle: Klucel (hydroxypropylcellulose) (HPC) 89 % of control

O=c1c2ccccc2[nH]c2cc([N+](=O)[O-])cc([N+](=O)[O-])c12
inactive: dose: 50.0 mg/kg/injection, schedule: Q01DX005 (ip), vehicle: saline with Tween-80 90 % of control | dose: 100.0 mg/kg/injection, schedule: Q01DX005 (ip), vehicle: saline with Tween-80 90 % of control | dose: 200.0 mg/kg/injection, schedule: Q01DX005 (ip), vehicle: saline with Tween-80 98 % of control

CCCCCCC[CH2][Sn]([Cl])([CH2]CCCCCCC)[O][Sn]([CH2]CCCCCCC)([CH2]CCCCCCC)[O]C
inactive: dose: 100.0 mg/kg/injection, schedule: Q04DX003 (ip), vehicle: saline 101 % of control | dose: 200.0 mg/kg/injection, schedule: Q04DX003 (ip), vehicle: saline 96 % of control | dose: 400.0 mg/kg/injection, schedule: Q04DX003 (ip), vehicle: saline 98 % of control

CC1=N[C@@H](C(=O)NCC(N)=O)Cc2c1[nH]c1ccccc21
inactive: dose: 60.0 mg/kg/injection, schedule: Q01DX005 (ip), vehicle: saline with Tween-80 98 % of control | dose: 120.0 mg/kg/injection, schedule: Q01DX005 (ip), vehicle: saline with Tween-80 93 % of control | dose: 240.0 mg/kg/injection, schedule: Q01DX005 (ip), vehicle: saline with Tween-80 93 % of control

CN(C)NC(=S)Sc1ccccc1
inactive: dose: 50.0 mg/kg/injection, schedule: Q01DX009 (ip), vehicle: Klucel (hydroxypropylcellulose) (HPC) 100 % of control | dose: 100.0 mg/kg/injection, schedule: Q01DX009 (ip), vehicle: Klucel (hydroxypropylcellulose) (HPC) 99 % of control

COC1CC(=O)C2(C)C3CCC4(C)C(C(C)C5CC(C)=C(CO)C(=O)O5)CCC4C3CC3OC32C1O (stereo unspecified)
inactive: dose: 10.12 mg/kg/injection, schedule: Q01DX009 (ip), vehicle: saline + alcohol 105 % of control | dose: 20.25 mg/kg/injection, schedule: Q01DX009 (ip), vehicle: saline + alcohol 96 % of control | dose: 40.5 mg/kg/injection, schedule: Q01DX009 (ip), vehicle: saline + alcohol 94 % of control

CC1CCCC(C)N1NC1=NCCO1 (stereo unspecified)
inactive: dose: 25.0 mg/kg/injection, schedule: Q04DX003 (ip), vehicle: saline with Tween-80 104 % of control | dose: 50.0 mg/kg/injection, schedule: Q04DX003 (ip), vehicle: saline with Tween-80 95 % of control

Cc1nc(-c2ccc(Cl)cc2)c(Cc2c(O)ccc3ccccc23)c(=O)[nH]1
inactive: dose: 50.0 mg/kg/injection, schedule: Q01DX009 (ip), vehicle: saline 102 % of control | dose: 100.0 mg/kg/injection, schedule: Q01DX009 (ip), vehicle: saline 102 % of control | dose: 200.0 mg/kg/injection, schedule: Q01DX009 (ip), vehicle: saline 102 % of control
